Test [1] relates to ARS-1620 labeled peptides eluted from KRas G12C cells. Put plainly: Covalent capture ELISA of MHC eluted peptides (mild acid elution). Type of test: cell-based. The note with it: ARS-1620 treated KRas G12C samples, stained with P1A4 IgG. The text has this: (§1) To test whether the cell surface exposed ARS-1620 was pMHC associated, a proximity ligation assay was used in which fluorescent signal is indicative of colocalization of ARS-1620 and MHC (FIG. 5). […] To test whether this colocalization was due to direct covalent reaction with MHC molecules already on the cell surface or due to traditional loading of intracellular MHCs with covalently modified intracellular peptides, a covalent capture ELISA was used to detect ARS-1620 labeled peptides eluted from cells by mild acid elution. A short acid treatment dissociates peptides from the pMHC on living cells, allowing capture of the presented peptides in the acidic buffer supernatant and subsequent covalent immobilization via their N-terminus for ELISA. […] The eluted peptides and peptides obtained from MHC immunoprecipitation are analyzed by mass spectrometry to precisely identify haptenized peptide sequences.
(An ELISA detects its analyte on a solid surface through an enzyme-linked reagent.)

For test [2], the system named is KRas G12C cell lines (H358, MiaPaca-2, SW1573). The test is described as follows: Flow cytometry of cell-surface accessible ARS-1620 with P1A4. The format is cell-based. Particulars: several KRas G12C cell lines compared to a wild type KRas cell line. From the text:
Low background staining observed in the presence of DMSO treatment confirms that the interaction is ARS-1620 dependent.

For the next test, the target named is KRas G12C (Homo sapiens, UniProt P01116, G12C). Particulars: Visscher et al. 2016; cited from earlier work.
Another test relates to H358 (G12C+) cell lysate. The test is described as follows: Western blot of cell lysate with P1A4 IgG. Type of test: binding. Particulars: treated H358 (G12C+) cells. Background: In western blotting, separated proteins are transferred to a membrane and probed.
The next test addresses wild type KRas (Homo sapiens, UniProt P01116). The note with it: Visscher et al. 2016; cited from earlier work.
For test [3], the system named is colocalization of ARS-1620 and MHC in a KRas G12C cell line. The test is described as follows: Proximity ligation assay (PLA). Type of test: cell-based. The note with it: not with atropisomer or DMSO.
From the text: FIG. 5 is a schematic of the proximity ligation assay (PLA) for detecting colocalization of two antigens. […] Secondary antibodies are directed against the Fc region of the human or murine antibodies, and are attached to complimentary oligos used to assemble a complementary oligo for rolling circle amplification (RCA). Amplification only occurs if the two antigens are colocalized, and amplified oligos are detected with complimentary, fluorogenic oligos.
as §1

In test [4] the test system is T-cells of PBMCs co-incubated with MiaPaca-2 (KRas G12C) cells. The test is described as follows: T cell activation (CD3/CD69) by flow cytometry after 72 hr co-incubation. The format is cell-based. The note with it: ARS1620, No Ab. From the text: MiaPaca-2 (KRas G12C) cells were pulsed with either DMSO or ARS-1620 in order to label proteins without exerting a direct pharmacological effect on the health of the cells. […] Following the 72 hr treatment, cells were stained for T-cell receptors (CD3) and T-cell activation (CD69) and analyzed by flow cytometry.

Test [5] concerns human H358 (G12C+) cells xenografted tumors. The test is described as follows: H358 xenograft murine model, P1A4 IgG staining of harvested tumors by flow cytometry. Type of test: in vivo, Mice. On the procedure: In order to test whether ARS-1620 is accessible and targetable on the surface of treated cells in more complex systems, an H358 xenograft murine model was utilized. Mice were xenografted with human H358 (G12C+) cells and treated with either DMSO (placebo), ARS-1620 (1× at 200 mg/kg, or 3× at 200 mg/kg daily), or AMG-510 (1× at 100 mg/kg).

As for `C=CC(=O)N1CCN(c2ncnc3c(F)c(-c4c(O)cccc4F)c(Cl)cc23)CC1` (atropisomer, axis not shown) [ARS-1620], the “ARS-1620 haptenized peptides in MHC eluted peptides” value in test [1] is “readily detected”. Besides, in test [2], the “increase in cell surface ARS-1620” value is recorded as 10 ×. The “specificity for KRas G12C over other cellular proteins” value at KRas G12C was “high specificity”. Moreover, in the test with H358 (G12C+) cell lysate, the “off-targets of ARS-1620 detected by western blot with P1A4” value is “additional off-targets”. For the same molecule, the “binding to wild type KRas lacking acquired cysteine” value at wild type KRas is given as “no appreciable binding”. Also, the “fluorescent signal (colocalization of ARS-1620 with MHC)” value in test [3] is “detectable”. For the same molecule, the “% CD3 + CD69+” value in test [4] is listed as 2.42%. Also, the “P1A4 IgG staining of xenografted tumor cells” value in test [5] (ARS-1620 1× at 200 mg/kg or 3× at 200 mg/kg daily) is “P1A4+ cell population emerged”.
`C=CC(=O)N1CCN(c2nc(=O)n(-c3c(C)ccnc3C(C)C)c3nc(-c4c(O)cccc4F)c(F)cc23)[C@@H](C)C1` [AMG-510]: in test [5] (AMG-510 1× at 100 mg/kg), the “P1A4 IgG staining of xenografted tumor cells” value is listed as “no P1A4 staining”.
